# Several values for one entry are separate records, joined by “and”; a condition that tells them apart may be missing. Equal entries are not always repeated.
# Tests used:
# PRMT1 = PRMT1 (Homo sapiens, UniProt Q99873); test: Radioisotope-based methyltransferase assay (selectivity)
# [1] = tested on: Salmonella typhimurium TA98; test: Ames test, TA98
# Experimental: The Salmonella mutagenicity assay was performed by pre-incubating the test compounds for 20 min with Salmonella typhimurium strains TA98 and TA100, with and without metabolic activation (S9 mixture).
# After this time 2 mL of top agar was added to the mixture and poured on to a plate containing minimum agar. The plates were incubated at 37 °C for 49 h and the His ± revertant colonies were counted manually and automatically by a colony counter (Colony analyzer CA-11D systems, System science Co.,Ltd.). The influence of metabolic activation was tested by adding 500 μL of 10% S9 mixture. All experiments were performed in duplicate. […] DMSO served as the negative control (100 μL/plate). The mutagenic index (MI, the average number of revertants per plate divided by the average number of revertants per plate from the negative control) was also calculated for each dose. A sample was considered positive when the MI was equal to or greater than 2 for at least one of the tested doses.
# DOT1L = biological target: T1, DOT1L (Homo sapiens, UniProt Q8TEK3); test: Radioisotope-based methyltransferase assay (selectivity); assay type: biochemical
# T1 construct: purchased Reaction Biology
# T1 sequence (Q8TEK3 whole entry): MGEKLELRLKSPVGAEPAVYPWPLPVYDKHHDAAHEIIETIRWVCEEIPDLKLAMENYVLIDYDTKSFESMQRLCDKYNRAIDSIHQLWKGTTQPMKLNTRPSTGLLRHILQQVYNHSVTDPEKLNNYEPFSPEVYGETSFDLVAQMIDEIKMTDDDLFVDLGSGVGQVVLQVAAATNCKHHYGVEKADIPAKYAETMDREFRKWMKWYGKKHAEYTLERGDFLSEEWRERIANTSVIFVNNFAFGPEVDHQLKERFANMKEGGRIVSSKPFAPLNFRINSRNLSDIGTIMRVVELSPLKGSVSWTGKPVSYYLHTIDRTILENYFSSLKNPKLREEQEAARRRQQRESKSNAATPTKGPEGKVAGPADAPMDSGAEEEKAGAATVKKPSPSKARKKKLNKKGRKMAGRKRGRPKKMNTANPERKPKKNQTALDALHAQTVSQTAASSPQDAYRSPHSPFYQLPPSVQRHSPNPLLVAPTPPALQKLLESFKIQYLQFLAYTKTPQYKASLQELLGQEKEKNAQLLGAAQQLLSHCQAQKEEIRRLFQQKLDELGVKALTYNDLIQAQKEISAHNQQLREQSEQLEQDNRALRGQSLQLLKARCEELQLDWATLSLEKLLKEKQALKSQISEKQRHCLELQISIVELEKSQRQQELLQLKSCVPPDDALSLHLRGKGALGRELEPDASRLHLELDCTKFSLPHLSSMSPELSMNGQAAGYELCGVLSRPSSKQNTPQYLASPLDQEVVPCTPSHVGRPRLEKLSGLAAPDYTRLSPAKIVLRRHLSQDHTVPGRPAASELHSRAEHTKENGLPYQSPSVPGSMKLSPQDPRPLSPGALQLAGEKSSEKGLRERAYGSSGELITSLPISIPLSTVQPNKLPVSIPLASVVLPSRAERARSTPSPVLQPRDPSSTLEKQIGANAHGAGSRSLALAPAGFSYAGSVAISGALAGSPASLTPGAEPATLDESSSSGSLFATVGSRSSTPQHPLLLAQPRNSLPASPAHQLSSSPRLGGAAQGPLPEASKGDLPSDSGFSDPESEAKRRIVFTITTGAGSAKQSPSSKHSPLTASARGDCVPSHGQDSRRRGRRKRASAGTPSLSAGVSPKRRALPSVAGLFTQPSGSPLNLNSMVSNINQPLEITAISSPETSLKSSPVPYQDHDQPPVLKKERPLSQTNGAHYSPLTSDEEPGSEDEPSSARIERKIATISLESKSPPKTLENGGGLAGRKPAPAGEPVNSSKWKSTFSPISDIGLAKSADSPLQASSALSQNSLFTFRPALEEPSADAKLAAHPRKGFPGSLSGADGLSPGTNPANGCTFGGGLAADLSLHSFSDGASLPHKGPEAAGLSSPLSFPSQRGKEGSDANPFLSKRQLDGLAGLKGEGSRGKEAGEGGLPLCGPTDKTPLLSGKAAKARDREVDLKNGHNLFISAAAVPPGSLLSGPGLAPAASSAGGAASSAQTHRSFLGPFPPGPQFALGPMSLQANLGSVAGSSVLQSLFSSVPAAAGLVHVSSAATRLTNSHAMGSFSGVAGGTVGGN
# MLL4 [2] = biological target: MLL4
# Sequence of MLL4 (Q9UMN6 2490-2715): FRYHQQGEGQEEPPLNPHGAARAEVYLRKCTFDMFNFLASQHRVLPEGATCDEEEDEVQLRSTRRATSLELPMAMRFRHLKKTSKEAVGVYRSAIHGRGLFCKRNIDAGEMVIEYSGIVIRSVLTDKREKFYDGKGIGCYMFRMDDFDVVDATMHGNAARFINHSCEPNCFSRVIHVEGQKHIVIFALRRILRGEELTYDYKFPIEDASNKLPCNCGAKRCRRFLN
# Sequence of MLL4 (Q9UBL3 whole entry, further chain): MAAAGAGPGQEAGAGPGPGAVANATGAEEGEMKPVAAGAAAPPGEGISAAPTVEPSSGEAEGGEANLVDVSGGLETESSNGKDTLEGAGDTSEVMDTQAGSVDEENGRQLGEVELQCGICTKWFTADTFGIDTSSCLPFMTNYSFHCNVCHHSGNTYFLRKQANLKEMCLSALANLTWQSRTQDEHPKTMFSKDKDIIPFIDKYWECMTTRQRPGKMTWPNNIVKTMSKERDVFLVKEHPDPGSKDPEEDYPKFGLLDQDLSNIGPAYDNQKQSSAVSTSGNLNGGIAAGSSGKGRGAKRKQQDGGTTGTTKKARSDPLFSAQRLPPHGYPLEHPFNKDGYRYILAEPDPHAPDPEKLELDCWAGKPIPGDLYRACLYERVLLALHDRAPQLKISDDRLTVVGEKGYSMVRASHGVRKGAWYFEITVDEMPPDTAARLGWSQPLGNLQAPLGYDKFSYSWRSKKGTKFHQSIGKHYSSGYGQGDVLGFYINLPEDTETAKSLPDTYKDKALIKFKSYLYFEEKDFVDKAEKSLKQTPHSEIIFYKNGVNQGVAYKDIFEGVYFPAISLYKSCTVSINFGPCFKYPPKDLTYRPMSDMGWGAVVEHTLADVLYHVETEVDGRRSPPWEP
# Sequence of MLL4 (Q9C005 whole entry, further chain): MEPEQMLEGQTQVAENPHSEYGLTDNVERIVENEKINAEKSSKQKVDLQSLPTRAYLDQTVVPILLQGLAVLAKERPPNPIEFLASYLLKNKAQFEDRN
# Sequence of MLL4 (Q15291 whole entry, further chain): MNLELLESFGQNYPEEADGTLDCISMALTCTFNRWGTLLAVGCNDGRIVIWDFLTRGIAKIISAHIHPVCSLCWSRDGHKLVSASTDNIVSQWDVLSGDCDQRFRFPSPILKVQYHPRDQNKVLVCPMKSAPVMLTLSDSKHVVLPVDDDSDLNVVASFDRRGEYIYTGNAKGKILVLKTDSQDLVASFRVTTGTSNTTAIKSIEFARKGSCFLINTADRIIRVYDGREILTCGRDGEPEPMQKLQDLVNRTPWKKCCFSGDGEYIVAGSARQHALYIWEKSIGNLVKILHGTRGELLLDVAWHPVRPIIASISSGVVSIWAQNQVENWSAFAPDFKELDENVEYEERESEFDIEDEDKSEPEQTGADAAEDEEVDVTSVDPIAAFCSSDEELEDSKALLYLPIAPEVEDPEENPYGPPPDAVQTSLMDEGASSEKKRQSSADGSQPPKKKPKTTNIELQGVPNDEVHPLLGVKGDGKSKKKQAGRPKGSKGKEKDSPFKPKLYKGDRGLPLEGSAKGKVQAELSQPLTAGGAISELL
# H3K9me2 in HUDEP-2 cells = test: Western blotting of H3K9me2 in HUDEP-2 cells; assay type: cell-based, human; conditions: HUDEP-2, 4 days
# Experimental: Preparation of cell lysates and western blotting were performed as described previously. Protein from cells lysates in lysis buffer (50 mM Tris-HCl (pH 7.5), 150 mM NaCl, 5 mM EDTA, 0.1% NP-40, 1 mM dithiothreitol) were separated by sodium dodecyl sulfate–polyacrylamide gel electrophoresis (SDS-PAGE) and transferred to a polyvinylidene difluoride (PVDF) membrane (Millipore) by electroblotting. The membranes incubated with primary antibodies overnight at 4 °C and secondary antibodies for 1 h at room temperature. The immune complexes were detected with the Immobilon Western Chemiluminescent HRP Substrate (Millipore). Luminescence was analyzed on a FUSION SOLO S (Vilber). Western blot bands were visualized using Evolution Capt software (M&S Instruments Inc.). Primary antibodies used were anti-G9a (1:1000, CST, #3306), anti–α-tubulin (1:5000, Abcam, ab18251), anti-H3K9me2 (1:3000, Abcam, ab1220), anti-H3 (1:5000, Abcam, ab1791), anti-H3K27me3 (1:3000, Sigma, 07-449), anti-GLP (1:1000, CST, #35005), anti-FLAG (100 ng/ml, Fujifilm, 01422383), anti-His (1:5000, MBL, PM032), anti-BCL11A (1:1000, abcam, ab19487), anti-ZBTB7A (1:1000, CST, #50565), anti-CHD3 (1:1000, Novus Biologicals, NB100-60412), and anti-CHD4 (1:1000, abcam, ab240640). Uncropped scans of all of the blots are available in Source Data file.
# [3] = Mouse acute toxicity assay, body weight; assay type: in vivo, mice
# Experimental: All animal studies were approved by the Institutional Committee for Animal Experiments of the Institute of Microbial Chemistry, and were performed in accordance with relevant guidelines and regulations to minimize animal suffering. Four-week-old female ICR mice were purchased from Charles River Breeding Laboratories (Yokohama, Japan) and maintained in a specific pathogen-free barrier facility. […] Samples were dissolved in saline containing 10% DMSO and 1% Tween 80 and injected intravenously into mice.
# MLL4 [4] = biological target: MLL4 (Homo sapiens, UniProt Q9UMN6)
# Sequence of MLL4 (Homo sapiens, UniProt Q9UMN6) (Q9UMN6 2490-2715): as the sequence (Q9UMN6 2490-2715) above
# Sequence of MLL4 (Homo sapiens, UniProt Q9UMN6) (Q9UBL3 whole entry, further chain): as the sequence (Q9UBL3 whole entry, further chain) above
# Sequence of MLL4 (Homo sapiens, UniProt Q9UMN6) (Q9C005 whole entry, further chain): as the sequence (Q9C005 whole entry, further chain) above
# Sequence of MLL4 (Homo sapiens, UniProt Q9UMN6) (Q15291 whole entry, further chain): as the sequence (Q15291 whole entry, further chain) above
# Sequence of PRMT1 (Q99873 whole entry): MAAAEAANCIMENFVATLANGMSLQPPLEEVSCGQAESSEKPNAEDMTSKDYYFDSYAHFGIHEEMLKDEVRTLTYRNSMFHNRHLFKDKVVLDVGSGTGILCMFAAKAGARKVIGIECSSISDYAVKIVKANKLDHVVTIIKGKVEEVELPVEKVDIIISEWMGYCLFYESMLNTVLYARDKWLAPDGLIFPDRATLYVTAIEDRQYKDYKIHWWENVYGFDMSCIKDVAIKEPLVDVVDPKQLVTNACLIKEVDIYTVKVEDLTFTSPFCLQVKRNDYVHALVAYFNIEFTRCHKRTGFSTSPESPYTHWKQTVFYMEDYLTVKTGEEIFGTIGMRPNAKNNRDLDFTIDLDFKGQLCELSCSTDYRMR
structure (smiles),measurement,setting,value
Cc1c(C(=O)NC(CCC2CC2)C(=O)Nc2ccc(C#N)cc2)[nH]c2c1C(=O)CC(C)(C)C2 (centres unmarked) [RK-701],IC50,PRMT1,> 100 µM
same,Number of reverants/plate,"[1]; TA98, + S9, frameshift mutation, 4.88 μg/plate",28
same,Number of reverants/plate,"[1]; TA98, + S9, frameshift mutation, 19.5 μg/plate",29 and 28
same,Number of reverants/plate,"[1]; TA98, + S9, frameshift mutation, 78.1 μg/plate",31 and 30
same,Number of reverants/plate,"[1]; TA98, + S9, frameshift mutation, 313 μg/plate",28
same,Number of reverants/plate,"[1]; TA98, + S9, frameshift mutation, 1250* μg/plate",32 and 28
same,Number of reverants/plate,"[1]; TA98, + S9, frameshift mutation, 2500* μg/plate",28
same,Number of reverants/plate,"[1]; TA98, + S9, frameshift mutation, 5000* μg/plate",28 and 23
same,Number of revertants/plate,"[1]; TA98, +S9, 4.88 μg/plate",28
same,Number of revertants/plate,"[1]; TA98, +S9, 19.5 μg/plate",29
same,Number of revertants/plate,"[1]; TA98, +S9, 78.1 μg/plate",31
same,Number of revertants/plate,"[1]; TA98, +S9, 313 μg/plate",28
same,Number of revertants/plate,"[1]; TA98, +S9, 1250 μg/plate, insoluble material",30
same,Number of revertants/plate,"[1]; TA98, +S9, 2500 μg/plate, insoluble material",28
same,Number of revertants/plate,"[1]; TA98, +S9, 5000 μg/plate, insoluble material",26
same,Number of reverants/plate,"[1]; TA98, - S9, frameshift mutation, 4.88 μg/plate",13 and 20
same,Number of reverants/plate,"[1]; TA98, - S9, frameshift mutation, 19.5 μg/plate",12 and 13
same,Number of reverants/plate,"[1]; TA98, - S9, frameshift mutation, 78.1 μg/plate",14 and 20
same,Number of reverants/plate,"[1]; TA98, - S9, frameshift mutation, 313 μg/plate",14 and 12
same,Number of reverants/plate,"[1]; TA98, - S9, frameshift mutation, 1250* μg/plate",11 and 12
same,Number of reverants/plate,"[1]; TA98, - S9, frameshift mutation, 2500* μg/plate",11 and 12
same,Number of reverants/plate,"[1]; TA98, - S9, frameshift mutation, 5000* μg/plate",13 and 16
same,Number of revertants/plate,"[1]; TA98, -S9, 4.88 μg/plate",17
same,Number of revertants/plate,"[1]; TA98, -S9, 19.5 μg/plate",13
same,Number of revertants/plate,"[1]; TA98, -S9, 78.1 μg/plate",17
same,Number of revertants/plate,"[1]; TA98, -S9, 313 μg/plate",13
same,Number of revertants/plate,"[1]; TA98, -S9, 1250 μg/plate, insoluble material",12
same,Number of revertants/plate,"[1]; TA98, -S9, 2500 μg/plate, insoluble material",12
same,Number of revertants/plate,"[1]; TA98, -S9, 5000 μg/plate, insoluble material",15
same,mutagenicity,"[1]; TA98, regardless of metabolic activation",no mutagenicity
same,IC50,DOT1L; 1 μM SAM,> 100 µM
same,IC50,DOT1L; RK-701 in duplicate,> 100 µM
same,IC50,MLL4 [2],> 100 µM
same,cellular H3K9me2 levels,H3K9me2 in HUDEP-2 cells,dose-dependent reduction
same,The body weight of individual mice,"[3]; 12.5 mg/kg, Day0",24.94 g
same,The body weight of individual mice,"[3]; 12.5 mg/kg, Day1",24.39 g
same,The body weight of individual mice,"[3]; 12.5 mg/kg, Day3",26.32 g and 24.79 g
same,The body weight of individual mice,"[3]; 12.5 mg/kg, Day5",26.12 g and 25.27 g and 26.24 g
same,The body weight of individual mice,"[3]; 12.5 mg/kg, Day7",26.84 g and 25.44 g and 25.63 g
same,The body weight of individual mice,"[3]; 12.5 mg/kg, Day9",26.98 g and 26.32 g and 26.65 g
same,The body weight of individual mice,"[3]; 12.5 mg/kg, Day11",27.95 g and 26.07 g and 25.28 g
same,The body weight of individual mice,"[3]; 12.5 mg/kg, Day14",27.71 g and 26.81 g and 27.50 g
same,The body weight of individual mice,"[3]; 25 mg/kg, Day0",23.49 g and 24.32 g and 24.36 g
same,The body weight of individual mice,"[3]; 25 mg/kg, Day1",23.24 g and 25.05 g and 21.93 g
same,The body weight of individual mice,"[3]; 25 mg/kg, Day2",24.39 g and 26.13 g and 23.16 g
same,The body weight of individual mice,"[3]; 25 mg/kg, Day3",24.09 g and 26.66 g and 23.50 g
same,The body weight of individual mice,"[3]; 25 mg/kg, Day4",24.79 g and 27.09 g and 24.50 g
same,The body weight of individual mice,"[3]; 25 mg/kg, Day5",25.11 g and 26.53 g and 25.43 g
same,The body weight of individual mice,"[3]; 25 mg/kg, Day7",25.92 g and 26.25 g and 25.57 g
same,The body weight of individual mice,"[3]; 25 mg/kg, Day9",25.69 g and 26.57 g and 26.31 g
same,The body weight of individual mice,"[3]; 25 mg/kg, Day11",26.68 g and 27.09 g and 27.51 g
same,The body weight of individual mice,"[3]; 25 mg/kg, Day14",26.24 g and 26.26 g and 28.11 g
same,The body weight of individual mice,"[3]; 50 mg/kg, Day0",22.18 g and 23.36 g and 23.10 g
same,The body weight of individual mice,"[3]; 50 mg/kg, Day1",22.71 g and 22.55 g and 24.93 g
same,The body weight of individual mice,"[3]; 50 mg/kg, Day2",23.39 g and 22.67 g and 25.00 g
same,The body weight of individual mice,"[3]; 50 mg/kg, Day3",24.41 g and 22.89 g and 25.00 g
same,The body weight of individual mice,"[3]; 50 mg/kg, Day4",24.33 g and 23.75 g and 26.48 g
same,The body weight of individual mice,"[3]; 50 mg/kg, Day5",24.37 g and 24.57 g and 26.83 g
same,The body weight of individual mice,"[3]; 50 mg/kg, Day7",25.33 g and 23.96 g and 27.23 g
same,The body weight of individual mice,"[3]; 50 mg/kg, Day9",25.95 g and 24.94 g and 26.92 g
same,The body weight of individual mice,"[3]; 50 mg/kg, Day11",26.83 g and 25.42 g and 28.13 g
same,The body weight of individual mice,"[3]; 50 mg/kg, Day14",27.45 g and 26.37 g and 28.85 g
same,The body weight of individual mice,"[3]; 100 mg/kg, Day0",22.92 g and 23.08 g and 22.86 g
same,The body weight of individual mice,"[3]; 100 mg/kg, Day1",21.12 g and 23.93 g and 21.40 g
same,The body weight of individual mice,"[3]; 100 mg/kg, Day2",22.69 g and 24.09 g and 22.95 g
same,The body weight of individual mice,"[3]; 100 mg/kg, Day3",23.07 g
same,"acute toxicity, body weight","[3]; mouse, in vivo, iv",no significant body weight loss
"Nc1ncnc2c1ncn2[C@@H]1O[C@H](CSCC[C@H](N)C(=O)O)[C@@H](O)[C@H]1O [SAH, S-(5'-Adenosyl)-L-homocysteine, reference compound]",IC50,MLL4 [4],1.13 µM
